Biological target: T1, Tyrosine-protein kinase BTK (Homo sapiens, UniProt Q06187)
Assay: Inhibition of BTK (unknown origin)

T1 sequence (Q06187 whole entry): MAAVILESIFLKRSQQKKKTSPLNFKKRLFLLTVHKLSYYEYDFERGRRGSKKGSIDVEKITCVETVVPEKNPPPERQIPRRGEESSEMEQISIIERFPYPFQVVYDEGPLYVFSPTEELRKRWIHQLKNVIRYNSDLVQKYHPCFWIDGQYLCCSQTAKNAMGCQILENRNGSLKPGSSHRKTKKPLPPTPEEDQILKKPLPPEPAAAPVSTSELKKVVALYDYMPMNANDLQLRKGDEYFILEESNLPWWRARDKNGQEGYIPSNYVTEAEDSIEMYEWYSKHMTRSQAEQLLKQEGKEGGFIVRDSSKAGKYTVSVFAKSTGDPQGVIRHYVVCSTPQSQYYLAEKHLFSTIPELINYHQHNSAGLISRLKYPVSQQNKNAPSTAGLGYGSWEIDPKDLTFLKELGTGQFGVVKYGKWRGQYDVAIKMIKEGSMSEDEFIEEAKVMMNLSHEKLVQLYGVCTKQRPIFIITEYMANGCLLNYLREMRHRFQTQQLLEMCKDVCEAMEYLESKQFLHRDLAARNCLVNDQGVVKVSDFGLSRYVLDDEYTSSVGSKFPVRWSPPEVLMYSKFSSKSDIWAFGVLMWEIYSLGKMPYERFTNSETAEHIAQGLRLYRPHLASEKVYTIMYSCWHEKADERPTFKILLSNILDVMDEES

IC50 [µM]	SMILES
0.001	C=CC(=O)Nc1cccc(Oc2nc(Nc3ccc(N4CCN(C)CC4)cc3)nc3ccsc23)c1 [OLMUTINIB]
0.0239	C=CC(=O)N1CCC[C@@H](n2c(=O)n(-c3ccc(Oc4ccccc4)cc3)c3c(N)ncnc32)C1

Biological target: T1, Tyrosine-protein kinase BTK
Assay: Inhibition of BTK (unknown origin) assessed as reduction in phosphorylation of coumarin and fluorescein-labeled FRET peptide substrate incubated for 1 hr by Z-Lyte assay

SMILES	IC50 [µM]
C=CC(=O)N1CCC[C@@H](Nc2ncnc(N)c2C(=O)c2ccc(Oc3ccccc3)cc2)C1	0.07
C=CC(=O)N1CCN(c2ncnc(N)c2C(=O)c2ccc(Oc3ccccc3)cc2)CC1	0.88
C=CC(=O)N1CCC(Nc2ncnc(N)c2C(=O)c2ccc(Oc3ccccc3)cc2)CC1	1.07

Next, values leading:

IC50 [µM]	SMILES
1.8	C=CC(=O)N1CCC[C@@H](Nc2ncnc(N)c2C(=O)c2ccc(OCC)cc2)C1
1.32	C=CC(=O)N1CCN(c2ncnc(N)c2C(=O)c2ccc(OCC)cc2)CC1

Source: ChEMBL document CHEMBL3808322, “Structure-based discovery of novel 4,5,6-trisubstituted pyrimidines as potent covalent Bruton's tyrosine kinase inhibitors” (Bioorg Med Chem Lett, 2016)
